According to patent publication EP1192131B1, “METHOD OF INHIBITING AMYLOID PROTEIN AGGREGATION AND IMAGING AMYLOID DEPOSITS USING ISOINDOLINE DERIVATIVES” (Warner-Lambert Company LLC, priority 1999, dated 2000):
pIC50: −log10 of the molar value. Values joined by “and” are separate entries in the source; they are usually repeats but may differ in a detail not shown here. Equal values may be shown once. Read-outs that look alike come from different tables or passages of the source.

Target: Aβ(1-40) (Homo sapiens, UniProt P05067)
Experiment: BASSR (Beta-Amyloid Self-Seeding Radioassay), inhibition of self-seeded amyloid fibril growth
Type: biochemical
Parameters: Soluble Aβ(1-40) peptide (Bachem, Torrance, CA); purchased Bachem, Torrance, CA
Conditions: 30 µM soluble Aβ (1-40) + 125I-labeled Aβ(1-40), 37°C, 3 to 5 hours, several values in a cell = repeat values, letter in parentheses = lot of compound (no letter = Lot P), (ppt), (v-shape) flags; for IC50: read-out: BASSR IC50 (converted); for pIC50: read-out: BASSR IC50
Description: BASSR (Beta-Amyloid Self-Seeding Radioassay)
An assay for inhibitors of self-seeded amyloid fibril growth
Assay Buffer - 50 mM sodium phosphate, pH 7.5, 100 mM NaCl, 0.02% NaN3, 1 M urea (filter and store at 4°C)
Soluble Aβ(1-40) peptide (Bachem, Torrance, CA) - 2.2 mg/mL in deionized H2O (stored in aliquots at -20°C, keep on ice when thawed) will self-seed after 1 week storage. Typically, the solution should be stored until no lag phase is seen in the assay.
^125I-labeled Aβ (1-40) - 150K-350K cpm/µL in 100% acetonitrile -0.1% trifluoroacetic acid (TFA) -1% β-mercaptoethanol (aliquots stored at -20°C) ^125I-labeled Aβ(1-40) can be made in accordance with the procedure set forth by H. LeVine, III in Neurobiol. Aging, 16:755 (1995), which is hereby incorporated by reference, or this reagent may be purchased from Amersham, Arlington Heights, Illinois.
Final assay conditions: 30 µM soluble Aβ (1-40) in deionized water in assay buffer + 20-50K cpm ^125I-labeled Aβ(1-40) per assay. Compound to be tested is dissolved in dimethylsulfoxide (DMSO), typically 5-50 mM stock, such that the final concentration of DMSO is <1% v/v in the assay.
Assay: Reaction mixture for 50 assays (on ice) is comprised of 0.1-0.2 µL of ^125I-labeled A^125I-labeled Aβ(1-40) + 1 µL of soluble Aβ (1-40) + 13.5 µL assay buffer per assay. The following are the amounts of the components of the reaction mixture sufficient for 50 assay wells. 5-10 µL ^125I-labeled Aβ (1-40) dried down 675 µL assay buffer 50 µL soluble Aβ (1-40)
• 1) Prepare reaction mixture above by mixing components and storing on ice. • 2) Pipet 14.5 µL of reaction mixture into each of 50 wells on a polypropylene U-bottom 96-well microtiter plate on ice (Costar 3794). • 3) Add 1.7 µL, of diluted compound to be tested to each well in a column of eight, including solvent control. Serial 3-fold dilutions from 1 mM (100 µM final) in assay buffer -urea = 7 dilutions + zero. Each 96-well plate can therefore accommodate 11 samples + 1 Congo Red control (0.039-5 µM final in 2-fold steps). • 4) Seal the plate with aluminum film (Beckman 538619) and incubate for 10 minutes on ice. • 5) Raise the temperature to 37°C and incubate for 3 to 5 hours (depending on the lot of the peptide). • 6) Remove the aluminum film and add 200 µL/well of ice cold assay buffer with urea, collecting the radiolabeled fibrils by vacuum filtration through 0.2 µm pore size GVWP filters in 96-well plates (Millipore MAGV N22, Bedford, MA). Determine the radioactivity of the filters using standard methods well-known to those skilled in the art.

Chain of Aβ(1-40) (P05067 672-711): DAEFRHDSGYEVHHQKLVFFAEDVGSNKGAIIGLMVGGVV

Compound	IC50	pIC50
Cc1ccc(N2Cc3ccc(Nc4ccc([N+](=O)[O-])cc4C(=O)O)cc3C2)cc1C [Example 12, 2-[2-(3,4-Dimethyl-phenyl)-2,3-dihydro-1H-isoindol-5-ylamino]-5-nitro-benzoic acid]	> 100 µM	
O=C(O)c1cc([N+](=O)[O-])ccc1Nc1ccc2c(c1)CN(c1ccc(Cl)cc1)C2 [Example 15, 2-[2-(4-Chloro-phenyl)-2,3-dihydro-1H-isoindol-5-ylamino]-5-nitro-benzoic acid]	> 100 µM	
2-[2-(3-chlorophenyl)-2,3-dihydro-1H-isoindol-5-ylamino]benzoic acid [Example 7]	90 µM and 80 µM and > 100 µM	
O=C(O)c1cc([N+](=O)[O-])ccc1Nc1ccc2c(c1)CN(c1ccc(Cl)c(C(F)(F)F)c1)C2 [Example 19, 2-[2-(4-Chloro-3-trifluoromethyl-phenyl)-2,3-dihydro-1H-isoindol-5-ylamino]-5-nitro-benzoic acid]		5.96 and 6.00
2-[2-(3,4-Dimethylphenyl)-2,3-dihydro-1H-isoindol-5-ylamino]benzoic acid [Example 9]	> 100 µM	
O=C(O)c1ccccc1Nc1ccc2c(c1)CN(c1ccc(Cl)c(C(F)(F)F)c1)C2 [Example 10, 2-[2-(4-Chloro-3-trifluoromethylphenyl)-2,3-dihydro-1H-isoindol-5-ylamino]benzoic acid]		4.00 and 4.24 and 4.26 and 4.15
O=C(O)c1ccccc1Nc1ccc2c(c1)CN(c1ccc(Cl)c(Cl)c1)C2 [Example 4, 2-[2-(3,4-Dichlorophenyl)-2,3-dihydro-1H-isoindol-5-ylamino]benzoic acid]	12 µM and 11 µM (2×) and 15 µM (3×)	
COc1cc(Nc2ccc3c(c2)CN(c2ccc(Cl)c(Cl)c2)C3)c(C(=O)O)cc1[N+](=O)[O-] [Example 6, 2-[2-(3,4-Dichlorophenyl)-2,3-dihydro-1H-isoindol-5-ylamino]-4-methoxy-5-nitro-benzoic acid]	7 µM (2×) and 12 µM and 4 µM and 5 µM	
2-[2-(4-chlorophenyl)-2,3-dihydro-1H-isoindol-5-ylamino]benzoic acid [Example 8]	> 100 µM	

More lines, main results first:

IC50	Compound	pIC50
7 µM and 2.2 µM and 2 µM	COc1cccc(N2Cc3ccc(Nc4ccc([N+](=O)[O-])cc4C(=O)O)cc3C2)c1 [Example 21, 2-[2-(3-Methoxy-phenyl)-2,3-dihydro-1H-isoindol-5-ylamino]-5-nitro-benzoic acid]	
20 µM and 80 µM	Nc1ccc(Nc2ccc3c(c2)CN(c2ccc(Cl)c(Cl)c2)C3)c(C(=O)O)c1 [Example 17, 5-Amino-2-[2-(3,4-dichloro-phenyl)-2,3-dihydro-1H-isoindol-5-ylamino]-benzoic acid]	
> 100 µM and 50 µM and 70 µM	O=C(O)c1cc(F)ccc1Nc1ccc2c(c1)CN(c1ccc(Cl)c(Cl)c1)C2 [Example 23, 2-[2-(3,4-Dichloro-phenyl)-2,3-dihydro-1H-isoindol-5-ylamino]-5-fluoro-benzoic acid]	
> 100 µM	COc1cc(N2Cc3ccc(Nc4ccccc4C#N)cc3C2)cc(OC)c1OC [Example 25, 2-[2-(3,4,5-Trimethoxy-phenyl)-2,3-dihydro-1H-isoindol-5-ylamino]-benzonitrile]	
7 µM and 4 µM and 5 µM	O=C(O)c1cc([N+](=O)[O-])ccc1Nc1ccc2c(c1)CN(c1ccccc1)C2 [Example 18, 5-Nitro-2-(2-phenyl-2,3-dihydro-1H-isoindol-5-ylamino)-benzoic acid]	
> 100 µM	COc1cccc(N2Cc3ccc(Nc4ccccc4C(=O)O)cc3C2)c1 [Example 26, 2-[2-(3-Methoxy-phenyl)-2,3-dihydro-1H-isoindol-5-ylamino]-benzoic acid]	
> 100 µM	Clc1ccc(N2Cc3ccc(Nc4ccccc4-c4nnn[nH]4)cc3C2)cc1Cl [Example 16, [2-(3,4-Dichloro-phenyl)-2,3-dihydro-1H-isoindol-5-yl]-[2-(1H-tetrazol-5-yl)-phenyl]-amine]	
10 µM and 3 µM (2×) and 6.5 µM and 8 µM	O=C(O)c1ccccc1Nc1ccc2c(c1)CN(c1cccc(F)c1)C2 [Example 22, 2-[2-(3-Fluoro-phenyl)-2,3-dihydro-1H-isoindol-5-ylamino]-benzoic acid]	
> 100 µM	O=C(O)c1cc([N+](=O)[O-])ccc1Nc1ccc2c(c1)CN(c1cccc(F)c1)C2 [Example 20, 2-[2-(3-Fluoro-phenyl)-2,3-dihydro-1H-isoindol-5-ylamino]-5-nitro-benzoic acid]	
